# Measured values from patent US10000791B2, “Measurement method for human pancreatic lipase activity” (ASAHI KASEI PHARMA CORPORATION, priority 2013, dated 2018).
# System: human pancreatic lipase
# Test: lipase activity measured in control, normal and heparin-administered samples with each reagent (1,2-dioleoyl glycerol, UV method; Liquitech Lipase Color II for verification)
# Type: biochemical
# Set-up: lipase activity relative to (1) comparative example NaDCA (Table 1): concentration or dose not given beside the values
# Settings: for lipase activity (Table 1): NaDCA pH 8.15, other bile salts pH 7.0; for lipase activity (Table 2): comparative example pH 8.15, present example pH 7.1, bile acid 40 mmol/L in R-1
# Protocol: A mixture of the substrate stock solution and the R-1 in a proportion of 1:2 was used as a first reagent. The R-2 was directly used as a second reagent. As a sample, pooled serum or a control sample (a control containing a pancreatic lipase) was used. A proportion in amount among the sample, the first reagent and the second reagent was set as sample:first reagent:second reagent of 0.01 ml:0.18 ml:0.06 ml. The sample was added to the first reagent, the resultant mixture was heated at 37° C. for 5 minutes, the second reagent was added thereto, and a change rate of an absorbance at 340 nm based on reduced NADP was obtained at 37° C. from 3 minutes after the addition of the second reagent to 4 minutes after the addition, and then, the lipase activity was calculated by using a molecular extinction coefficient of 6300 L/mol·cm of the reduced NADP. Besides, as a sample blank, saline was used instead of a sample, an absorbance was measured by using the reagent for sample blank obtained by removing MGLPII from the second reagent, and a difference between the thus measured two values was defined as an enzyme activity value. For the measurement, Hitachi automatic analyzer Model H7170 or H7080 was used.
# Similarly to Example 1, a mixture of the substrate stock solution and the R-1 in a proportion of 1:2 was used as a first reagent. Except for this, the measurement was performed in the same manner as in Example 1.
# A commercially available reagent for a resorufin colorimetric method, “Liquitech Lipase Color II” manufactured by Roche Diagnostics using 1,2-O-dilauryl-rac-glycerol-3-glutaric acid-(6-methylresorufin)ester (DGGR), which is regarded not to be influenced by a non-pancreatic lipase, such as a lipoprotein lipase or a hepatic lipase, appearing in blood due to administration of heparin, was used for verifying the effect of the present example. “Liquitech Lipase Color II” was used in accordance with the package insert, and a special calibrator was used for calculating the enzyme activity. […] The concentration of each bile acid used in the present example was set to be the same as that in the comparative example.
# As samples, a control, non-heparin-administered samples (normal samples), and heparin-administered samples were used.
# The compositions of the reagents were the same as those of Example 2. As a comparative example, NaDCA (in a concentration of 40 mmol/L in the R-1) was used as the bile acid, and the reaction solution was adjusted to pH 8.15 (by the Bicine buffer) for measuring a heparin-administered sample.
# It is noted that CRM-001b containing a human pancreatic recombinant lipase dissolved not in distilled water but in a pooled serum was used as the calibrator to calculate the lipase activity.
# As a bile acid of the present example and a reference example, NaTDCA was selected, and the pH dependence with the pH of a reaction solution changed in a range of 6.2 to 7.6 was examined. It is noted that a case of pH 7.6 was used as the reference example. An MES buffer was used for adjusting pH to 6.2 and 6.4, and the BES buffer was used for adjusting the other pHs. As samples, (six) control samples (controls each containing a pancreatic lipase) and (nine) heparin-administered samples were used. As a comparative example, NaDCA (in a concentration of 40 mmol/L in the R-1) was used as the bile acid, and a reaction solution having pH 8.15 (the Bicine buffer) was used. Besides, “Liquitech Lipase Color II” manufactured by Roche Diagnostics was used for verifying the effect of the present example.
compound,measurement,setting,value
"C[C@H](CCC(=O)NCC(=O)[O-])[C@H]1CC[C@H]2[C@@H]3[C@H](O)C[C@@H]4C[C@H](O)CC[C@]4(C)[C@H]3CC[C@]12C.[Na+] [NaGCDCA, sodium glycochenodeoxycholate]",sensitivity at pH 7.95 compared with pH 7.0,NaGCDCA 40 mmol/L in R-1,about 40%
same,lipase activity (Table 1),Normal sample 1,38.1 U/L
same,lipase activity relative to (1) comparative example NaDCA (Table 1),"Normal sample 1, pH 7.0",97.5%
same,lipase activity (Table 1),Normal sample 2,75.6 U/L
same,lipase activity relative to (1) comparative example NaDCA (Table 1),"Normal sample 2, pH 7.0",79.5%
same,lipase activity (Table 1),Normal sample 3,41.2 U/L
same,lipase activity relative to (1) comparative example NaDCA (Table 1),"Normal sample 3, pH 7.0",88.4%
same,lipase activity (Table 1),Normal sample 4,31.7 U/L
same,lipase activity relative to (1) comparative example NaDCA (Table 1),"Normal sample 4, pH 7.0",73.0%
same,lipase activity (Table 1),Normal sample 5,28.8 U/L
same,lipase activity relative to (1) comparative example NaDCA (Table 1),"Normal sample 5, pH 7.0",70.8%
same,lipase activity (Table 1),sample Heparin 1,30.8 U/L
same,lipase activity (Table 2),sample Heparin 1,47.8 U/L
same,lipase activity relative to (1) comparative example NaDCA (Table 1),"sample Heparin 1, pH 7.0",40.1%
same,lipase activity (Table 1),sample Heparin 2,41.3 U/L
same,lipase activity (Table 2),sample Heparin 2,25.9 U/L
same,lipase activity relative to (1) comparative example NaDCA (Table 1),"sample Heparin 2, pH 7.0",47.6%
same,lipase activity (Table 1),sample Heparin 3,29.8 U/L
same,lipase activity (Table 2),sample Heparin 3,44.0 U/L
same,lipase activity relative to (1) comparative example NaDCA (Table 1),"sample Heparin 3, pH 7.0",26.4%
same,lipase activity (Table 1),sample Heparin 4,31.6 U/L
same,lipase activity relative to (1) comparative example NaDCA (Table 1),"sample Heparin 4, pH 7.0",31.2%
same,lipase activity (Table 1),sample Heparin 5,17.8 U/L
same,lipase activity relative to (1) comparative example NaDCA (Table 1),"sample Heparin 5, pH 7.0",26.0%
same,lipase activity (Table 1),sample Heparin 6,22.5 U/L
same,lipase activity relative to (1) comparative example NaDCA (Table 1),"sample Heparin 6, pH 7.0",32.5%
same,lipase activity (Table 1),sample Heparin 7,51.0 U/L
same,lipase activity relative to (1) comparative example NaDCA (Table 1),"sample Heparin 7, pH 7.0",36.9%
same,lipase activity (Table 1),sample Heparin 8,36.6 U/L
same,lipase activity relative to (1) comparative example NaDCA (Table 1),"sample Heparin 8, pH 7.0",29.0%
same,lipase activity (Table 1),sample Heparin 9,75.4 U/L
same,lipase activity relative to (1) comparative example NaDCA (Table 1),"sample Heparin 9, pH 7.0",44.7%
same,lipase activity (Table 5),"sample Heparin 31, pH 7.0",40.7 U/L
same,lipase activity (Table 5),"sample Heparin 31, pH 7.95",60.7 U/L
same,lipase activity (Table 5),"sample Heparin 32, pH 7.0",32.7 U/L
same,lipase activity (Table 5),"sample Heparin 32, pH 7.95",77.0 U/L
same,lipase activity (Table 1),sample PRECINORM,42.3 U/L
same,lipase activity (Table 5),"sample PRECINORM, pH 7.0",42.3 U/L
same,lipase activity relative to (1) comparative example NaDCA (Table 1),"sample PRECINORM, pH 7.0",82.9%
same,lipase activity (Table 5),"sample PRECINORM, pH 7.95",24.0 U/L
same,lipase activity (Table 1),sample PRECIPATH,109.9 U/L
same,lipase activity (Table 5),"sample PRECIPATH, pH 7.0",109.9 U/L
same,lipase activity relative to (1) comparative example NaDCA (Table 1),"sample PRECIPATH, pH 7.0",85.9%
same,lipase activity (Table 5),"sample PRECIPATH, pH 7.95",57.3 U/L
same,lipase activity (Table 5),"sample Pool 1, pH 7.0",36.9 U/L
same,lipase activity (Table 5),"sample Pool 1, pH 7.95",19.4 U/L
same,lipase activity (Table 5),"sample Pool 2, pH 7.0",17.5 U/L
same,lipase activity (Table 5),"sample Pool 2, pH 7.95",15.4 U/L
same,lipase activity (Table 5),"sample Seraclear LP, pH 7.0",17.5 U/L
same,lipase activity (Table 5),"sample Seraclear LP, pH 7.95",7.5 U/L
